Results reported in patent EP0237411A1, “(Piperidino-3)propoxy-5p-cymene, its acetyl, acetoxy and hydroxy derivatives, salts of these products, process for the preparation of these compounds and medicines containing at least one of these products as active principle” (INSTITUT DE RECHERCHES CHIMIQUES ET BIOLOGIQUES APPLIQUEES …, priority 1986, dated 1987).
Where two headings read alike, the source gives them in different places.

Columns and labels:
[1] = Acute toxicity test in the mouse (oral); details: in vivo, read-out: Mortalité en %
Text: 1. Tests de toxicité aiguë chez la souris
Les résultats sont rapportés dans le tableau 1.

[2] = test system: canal déférent isolé de rat; assay: α-adrenolytic action in vitro: antagonism of noradrenaline-induced contractions of isolated rat vas deferens (pA2); type: cell-based; details: pA2 against noradrenaline, read-out: Action α-bloquante vis-à-vis de la noradrénaline PA2 sur canal déférent isolé (converted)
Text: 2. Détermination de l'action α-adrénolytique "in vitro" sur le canal déférent du rat.
La noradrénaline provoque des contractions du canal déférent isolé de rat. La présence dans le bain de l'organe de substances α-bloquantes antagonise ces contractions.
L'utilisation de concentrations croissantes de substances α-bloquantes permet de calculer : . la PA₂ des composés sur le canal déférent de rat.
La PA₂ étant le logarithme changé de signe de la concentration molaire des produits B 1O2O - B 1O21 - B 1O37 - -B 1O59 en présence de laquelle il faut multiplier par deux la concentration de noradrénaline pour obtenir le même effet qu'en l'absence dudit produit.

[3] = test system: récepteurs α-adrénergiques; assay: Adrenolytic activity in vivo in the rat: protection against death induced by i.v. noradrenaline; details: 50 mg/kg P.O, 30 min before i.v. noradrenaline (0,4 mg/kg)
Procedure: 3. Détermination de l'activité adrénolytique "in vivo" chez le rat
. La noradrénaline injectée à fortes doses par voie intraveineuse provoque la mort de 1OO % des animaux dans les 15 min qui suivent son injection. La mort survient par oedème pulmonaire dû à l'hypertension artérielle induite principalement par la stimulation des récepteurs α-adrénergiques.
. L'administration préalable de substances α-adrénolytiques par voie orale permet de réduire la toxicité de la noradrénaline.
Les produits B 1O2O - B 1O21 - B 1O37 - B 1O59 sont administrés par voie orale 3O min avant l'injection intraveineuse de noradrénaline (O,4 mg/kg).

[4] = test system: effet hypertenseur de la noradrénaline; assay: Urethral specificity of alpha-blocking activity in vivo in the rabbit: inhibition of noradrenaline-induced rise of arterial and urethral pressure; parameters: species or system lapin; details: for ED50: Oryctolagus cuniculus, intravenous administration; for R DI50 (a) DI50 (u): ratio of arterial DI50 to urethral DI50
Text: 4. Spécificité urétrale de l'activité alpha bloquante déterminée in vivo chez le lapin :
a) - Principe de la mesure
. La noradérnaline (I.V.) provoque des augmentations dépendantes des doses de la pression artérielle et de la pression urétrale. Les substances adrénolytiques alpha antagonisent ces augmentations de pression.
. Pour les produits B 1020 - B 1037 et B 1059 administrés par voie veineuse, nous avons déterminé les doses inhibant de 50 p. cent (DI₅₀ ) l'effet de la noradrénaline au niveau artériel et urétral et évaluer le rapport R de ces DI₅₀ .

[5] = arterial pressure, read-out: Doses inhibant de 50 p.cent (DI50) l'effet hypertenseur de la noradrénaline au niveau artériel DI50 (a)
[6] = urethral pressure, read-out: Doses inhibant de 50 p.cent (DI50) l'effet hypertenseur de la noradrénaline au niveau urétral DI50 (u)

Row | Compound | mortality ([1]; 100 mg/kg) [%] | mortality ([1]; 1000 mg/kg) [%] | Kb [2] [µM] | % de protection contre la mort [3] [%] | ED50 [4, 5] [mg/kg] | ED50 [4, 6] [mg/kg] | R DI50 (a) DI50 (u) [4]
1 | CC(=O)c1cc(C(C)C)c(OCCCN2CCCCC2)cc1C [B 1021, chlorhydratede l'acétyl-2-[(pipéridino-3)propoxy]-5 p.cymène] | 20 | 100 | 1.74 | 40 |  |  | 
2 | Cc1cc(OCCCN2CCCCC2)c(C(C)C)cc1O [B 1037, chlorhydratede l'hydroxy-2-[(pipéridino-3)propoxy]-5 p.cymène] | 0 | 100 | 0.151 | 50 | > 3 | 0.5 | > 6
3 | Cc1ccc(C(C)C)c(OCCCN2CCCCC2)c1 [B 1020, chlorhydrate du [(pipéridino-3)propoxy]-3 p.cymène] | 0 | 40 | 0.302 | 80 | > 3 | 1.7 | > 1,7
4 | CC(=O)Oc1cc(C(C)C)c(OCCCN2CCCCC2)cc1C [B 1059, chlorhydratede l'acétoxy-2-[(pipéridino-3)propoxy]-5 p.cymène] | 0 | 100 | 0.126 | 50 | > 3 | 0.8 | > 3,7
5 | CC(=O)Oc1cc(C(C)C)c(OCCN(C)C)cc1C [Thymoxamine, chlorhydrate de thymoxamine, reference compound] | 0 | 100 | 0.0562 | 80 | 2.9 | 0.7 | 4,1
